# Data as given in patent publication US9302999B2, “Substituted triazoles as herbicides” (E. I. DU PONT DE NEMOURS AND COMPANY, priority 2012, dated 2016).
# Columns and labels:
# Assay type in all cases: in vivo
# rice (Oryza sativa) [1] = assay: Test B flooded paddy: rice; settings: Flood; 250 g ai/ha; applied to paddy water at 2-leaf stage; visually evaluated after 13 to 15 days
# Protocol: (§1) Seeds selected from rice (Oryza sativa), sedge, umbrella (small-flower umbrella sedge Cyperus difformis), ducksalad (Heteranthera limosa), and barnyardgrass (Echinochloa crus-galli) were grown to the 2-leaf stage for testing. At time of treatment, test pots were flooded to 3 cm above the soil surface, treated by application of test compounds directly to the paddy water, and then maintained at that water depth for the duration of the test.
# (§2) Treated plants and controls were maintained in a greenhouse for 13 to 15 days, after which time all species were compared to controls and visually evaluated. Plant response ratings, summarized in Table B, are based on a scale of 0 to 100 where 0 is no effect and 100 is complete control. A dash (-) response means no test result.
# [2] = test system: barnyardgrass (Echinochloa crus-galli); assay: Test A pre-/postemergence: barnyardgrass; settings: for Barnyardgrass plant response rating: Postemergence; for Plant response rating, Barnyardgrass: Preemergence
# How it was run: (§3)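 Plants in loam–sand blend were treated with test chemicals in non-phytotoxic solvent with surfactant, either as preemergence directed soil spray or postemergence at 2–10 cm, one- to two-leaf stage. After about ten days in greenhouse, injury was rated visually against untreated controls on a 0–100 scale (100 = complete control).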
# [3] = test system: wheat (Triticum aestivum); assay: Test A pre-/postemergence: wheat; settings: for Wheat plant response rating: Postemergence; for Plant response rating, Wheat: Preemergence
# How it was run: as §3
# [4] = test system: velvetleaf (Abutilon theophrasti); assay: Test A pre-/postemergence: velvetleaf; settings: for Velvetleaf plant response rating: Postemergence; for Plant response rating, Velvetleaf: Preemergence
# How it was run: as §3
# [5] = test system: ducksalad (Heteranthera limosa); assay: Test B flooded paddy: ducksalad; settings: Flood; 250 g ai/ha; applied to paddy water at 2-leaf stage; visually evaluated after 13 to 15 days
# Protocol: as §1, §2
# [6] = test system: crabgrass, large (large crabgrass, Digitaria sanguinalis); assay: Test A pre-/postemergence: crabgrass, large; settings: for Crabgrass, Large plant response rating: Postemergence; for Plant response rating, Crabgrass, Large: Preemergence
# How it was run: as §3
# [7] = test system: barnyardgrass (Echinochloa crus-galli); assay: Test B flooded paddy: barnyardgrass; settings: Flood; 250 g ai/ha; applied to paddy water at 2-leaf stage; visually evaluated after 13 to 15 days
# Protocol: as §1, §2
# [8] = test system: sedge, umbrella (small-flower umbrella sedge Cyperus difformis); assay: Test B flooded paddy: sedge, umbrella; settings: Flood; 250 g ai/ha; applied to paddy water at 2-leaf stage; visually evaluated after 13 to 15 days
# Protocol: as §1, §2
# [9] = test system: foxtail, giant (giant foxtail, Setaria faberii); assay: Test A pre-/postemergence: foxtail, giant; settings: for Foxtail, Giant plant response rating: Postemergence; for Plant response rating, Foxtail, Giant: Preemergence
# How it was run: as §3
# corn (Zea mays) = assay: Test A pre-/postemergence: corn; settings: for Corn plant response rating: Postemergence; for Plant response rating, Corn: Preemergence
# How it was run: as §3
# [10] = test system: morningglory (Ipomoea spp.); assay: Test A pre-/postemergence: morningglory; settings: for Morningglory plant response rating: Postemergence; for Plant response rating, Morningglory: Preemergence
# How it was run: as §3
# [11] = test system: pigweed (Amaranthus retroflexus); assay: Test A pre-/postemergence: pigweed; settings: for Pigweed plant response rating: Postemergence; for Plant response rating, Pigweed: Preemergence
# How it was run: as §3
# [12] = test system: ducksalad (Heteranthera limosa); assay: Test C flooded paddy test: ducksalad; settings: scale 0 to 100 (0 no effect, 100 complete control)
# How it was run: (§4)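 Plants at 2-leaf stage in pots flooded 3 cm above soil; compounds applied directly into the paddy water, depth maintained. Visual rating against controls after 13–15 days in greenhouse, scale 0 (no effect) to 100 (complete control).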
# rice (Oryza sativa) [13] = assay: Test C flooded paddy test: rice; settings: scale 0 to 100 (0 no effect, 100 complete control)
# How it was run: as §4
# [14] = test system: sedge, umbrella (small-flower umbrella sedge, Cyperus difformis); assay: Test C flooded paddy test: sedge, umbrella; settings: scale 0 to 100 (0 no effect, 100 complete control)
# How it was run: as §4
# [15] = test system: barnyardgrass (Echinochloa crus-galli); assay: Test C flooded paddy test: barnyardgrass; settings: scale 0 to 100 (0 no effect, 100 complete control)
# How it was run: as §4
# [16] = 125 g ai/ha, 0 to 100 scale, 0 is no effect, 100 is complete control
# [17] = 500 g ai/ha, visual rating on 0 to 100 scale (0 no effect, 100 complete control), approximately ten days
# [18] = 125 g ai/ha, 0 to 100 scale (0 no effect, 100 complete control)
# [19] = 500 g ai/ha, 0 to 100 scale, 0 is no effect, 100 is complete control
# [20] = 1000 g ai/ha, visual rating on 0 to 100 scale (0 no effect, 100 complete control), approximately ten days
# [21] = 1000 g ai/ha, 0 to 100 scale, 0 is no effect, 100 is complete control
# [22] = Flood (flooded paddy test), 250 g ai/ha, visual rating after 13 to 15 days
smiles,measurement,setting,value
Cc1ccc(-n2nc(C)c(C(=O)c3cccc(C(F)(F)F)c3)n2)cc1 [Compound 44],"Plant response rating, Rice (0 to 100 scale, 0 is no effect, 100 is complete control)",rice (Oryza sativa) [1],0
same,Barnyardgrass plant response rating,[2]; [16],20
same,Barnyardgrass plant response rating,[2]; [17],20
same,"Plant response rating, Barnyardgrass",[2]; [18],0
same,"Plant response rating, Barnyardgrass",[2]; [19],30
same,Wheat plant response rating,[3]; [16],20
same,Wheat plant response rating,[3]; [17],30
same,"Plant response rating, Wheat",[3]; [18],0
same,"Plant response rating, Wheat",[3]; [19],30
same,Velvetleaf plant response rating,[4]; [16],60
same,Velvetleaf plant response rating,[4]; [17],70
same,"Plant response rating, Velvetleaf",[4]; [18],0
same,"Plant response rating, Velvetleaf",[4]; [19],50
same,"Plant response rating, Ducksalad (0 to 100 scale, 0 is no effect, 100 is complete control)",[5],0
same,"Crabgrass, Large plant response rating",[6]; [16],30
same,"Crabgrass, Large plant response rating",[6]; [17],40
same,"Plant response rating, Crabgrass, Large",[6]; [18],60
same,"Plant response rating, Crabgrass, Large",[6]; [19],90
same,"Plant response rating, Barnyardgrass (0 to 100 scale, 0 is no effect, 100 is complete control)",[7],0
same,"Plant response rating, Sedge, Umbrella (0 to 100 scale, 0 is no effect, 100 is complete control)",[8],0
same,"Foxtail, Giant plant response rating",[9]; [16],20
same,"Foxtail, Giant plant response rating",[9]; [17],30
same,"Plant response rating, Foxtail, Giant",[9]; [18],70
same,"Plant response rating, Foxtail, Giant",[9]; [19],90
same,Corn plant response rating,corn (Zea mays); [16],30
same,Corn plant response rating,corn (Zea mays); [17],30
same,"Plant response rating, Corn",corn (Zea mays); [18],0
same,"Plant response rating, Corn",corn (Zea mays); [19],20
same,Morningglory plant response rating,[10]; [16],20
same,Morningglory plant response rating,[10]; [17],70
same,Pigweed plant response rating,[11]; [16],70
same,Pigweed plant response rating,[11]; [17],90
same,"Plant response rating, Pigweed",[11]; [18],20
same,"Plant response rating, Pigweed",[11]; [19],90
CCc1nn(-c2ccc(C(F)(F)F)cc2)nc1Cn1cnc(C(F)(F)F)c1 [Compound 133],Barnyardgrass plant response rating,[2]; [20],40
same,"Plant response rating, Barnyardgrass",[2]; [21],40
same,Wheat plant response rating,[3]; [20],30
same,"Plant response rating, Wheat",[3]; [21],0
same,"Plant response rating, Ducksalad",[12]; [22],20
same,"Plant response rating, Ducksalad","[12]; Flood, 62 g ai/ha",0
same,"Plant response rating, Rice",rice (Oryza sativa) [13]; [22],0
same,"Plant response rating, Rice","rice (Oryza sativa) [13]; Flood, 62 g ai/ha",0
same,Velvetleaf plant response rating,[4]; [20],90
same,"Plant response rating, Velvetleaf",[4]; [21],40
same,"Plant response rating, Sedge, Umbrella",[14]; [22],50
same,"Plant response rating, Sedge, Umbrella","[14]; Flood, 62 g ai/ha",0
same,"Crabgrass, Large plant response rating",[6]; [20],80
same,"Plant response rating, Crabgrass, Large",[6]; [21],90
same,"Plant response rating, Barnyardgrass",[15]; [22],15
same,"Plant response rating, Barnyardgrass","[15]; Flood, 62 g ai/ha",0
same,"Foxtail, Giant plant response rating",[9]; [20],70
same,"Plant response rating, Foxtail, Giant",[9]; [21],90
same,Corn plant response rating,corn (Zea mays); [20],20
same,"Plant response rating, Corn",corn (Zea mays); [21],10
same,Morningglory plant response rating,[10]; [20],90
same,"Plant response rating, Morningglory",[10]; [21],40
same,Pigweed plant response rating,[11]; [20],100
same,"Plant response rating, Pigweed",[11]; [21],90
Cc1nn(-c2ccc(C(F)(F)F)cc2)nc1Cn1nc(C(F)(F)F)cc1C [Compound 134],Barnyardgrass plant response rating,[2]; [20],30
same,"Plant response rating, Barnyardgrass",[2]; [21],30
same,Wheat plant response rating,[3]; [20],0
same,"Plant response rating, Wheat",[3]; [21],0
same,"Plant response rating, Ducksalad",[12]; [22],0
same,"Plant response rating, Ducksalad","[12]; Flood, 62 g ai/ha",0
same,"Plant response rating, Rice",rice (Oryza sativa) [13]; [22],0
same,"Plant response rating, Rice","rice (Oryza sativa) [13]; Flood, 62 g ai/ha",0
same,Velvetleaf plant response rating,[4]; [20],50
same,"Plant response rating, Velvetleaf",[4]; [21],0
same,"Plant response rating, Sedge, Umbrella",[14]; [22],0
same,"Plant response rating, Sedge, Umbrella","[14]; Flood, 62 g ai/ha",0
same,"Crabgrass, Large plant response rating",[6]; [20],90
same,"Plant response rating, Crabgrass, Large",[6]; [21],100
same,"Plant response rating, Barnyardgrass",[15]; [22],15
same,"Plant response rating, Barnyardgrass","[15]; Flood, 62 g ai/ha",0
same,"Foxtail, Giant plant response rating",[9]; [20],50
same,"Plant response rating, Foxtail, Giant",[9]; [21],100
same,Corn plant response rating,corn (Zea mays); [20],20
same,"Plant response rating, Corn",corn (Zea mays); [21],10
same,Morningglory plant response rating,[10]; [20],100
same,"Plant response rating, Morningglory",[10]; [21],10
same,Pigweed plant response rating,[11]; [20],100
same,"Plant response rating, Pigweed",[11]; [21],90
